These results are taken from patent US10689354B2, “Aminoazole derivative” (Teijin Pharma Limited, priority 2015, dated 2020).

Assay [1] deals with T1, androgen receptor (AR-LBD) (Rattus norvegicus, UniProt P15207).
T1 construct: 5 μL of 2×AR-LBD/Fluoromone AL Red Complex contained in the kit; purchased Invitrogen
T1 sequence (P15207 651-882 limits assumed): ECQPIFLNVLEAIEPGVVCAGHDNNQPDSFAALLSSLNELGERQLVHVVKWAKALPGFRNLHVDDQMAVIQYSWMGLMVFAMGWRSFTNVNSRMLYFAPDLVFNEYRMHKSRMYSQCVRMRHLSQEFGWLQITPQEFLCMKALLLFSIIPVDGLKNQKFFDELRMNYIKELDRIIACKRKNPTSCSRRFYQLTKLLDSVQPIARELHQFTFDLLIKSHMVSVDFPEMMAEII
The assay is described as follows: Evaluation of androgen receptor affinity (PolarScreen Androgen Receptor Competitor Assay Kit, Red; fluorescence polarization). The settings on record: 22° C. for 5 hours, relative to binding rate of 1 μM DHT, read-out: AR affinity (pEC50) (converted). Put shortly:
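Compounds were mixed with AR-LBD/Fluoromone AL Red complex and incubated 5 h at 22° C before fluorescence polarization was read. Binding was expressed relative to 1 μM dihydrotestosterone, and pEC50 (concentration giving 50% of that binding) came from a 4-parameter fit.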
On the technique in general: In fluorescence polarisation assays a small probe gives low polarisation when free and higher when bound to something large.

For assay [2], the target named is T2, human androgen receptor (Homo sapiens, UniProt P10275).
T2 construct: expressed in transfected cells; host or cells: HEK293
T2 sequence (P10275 1-920): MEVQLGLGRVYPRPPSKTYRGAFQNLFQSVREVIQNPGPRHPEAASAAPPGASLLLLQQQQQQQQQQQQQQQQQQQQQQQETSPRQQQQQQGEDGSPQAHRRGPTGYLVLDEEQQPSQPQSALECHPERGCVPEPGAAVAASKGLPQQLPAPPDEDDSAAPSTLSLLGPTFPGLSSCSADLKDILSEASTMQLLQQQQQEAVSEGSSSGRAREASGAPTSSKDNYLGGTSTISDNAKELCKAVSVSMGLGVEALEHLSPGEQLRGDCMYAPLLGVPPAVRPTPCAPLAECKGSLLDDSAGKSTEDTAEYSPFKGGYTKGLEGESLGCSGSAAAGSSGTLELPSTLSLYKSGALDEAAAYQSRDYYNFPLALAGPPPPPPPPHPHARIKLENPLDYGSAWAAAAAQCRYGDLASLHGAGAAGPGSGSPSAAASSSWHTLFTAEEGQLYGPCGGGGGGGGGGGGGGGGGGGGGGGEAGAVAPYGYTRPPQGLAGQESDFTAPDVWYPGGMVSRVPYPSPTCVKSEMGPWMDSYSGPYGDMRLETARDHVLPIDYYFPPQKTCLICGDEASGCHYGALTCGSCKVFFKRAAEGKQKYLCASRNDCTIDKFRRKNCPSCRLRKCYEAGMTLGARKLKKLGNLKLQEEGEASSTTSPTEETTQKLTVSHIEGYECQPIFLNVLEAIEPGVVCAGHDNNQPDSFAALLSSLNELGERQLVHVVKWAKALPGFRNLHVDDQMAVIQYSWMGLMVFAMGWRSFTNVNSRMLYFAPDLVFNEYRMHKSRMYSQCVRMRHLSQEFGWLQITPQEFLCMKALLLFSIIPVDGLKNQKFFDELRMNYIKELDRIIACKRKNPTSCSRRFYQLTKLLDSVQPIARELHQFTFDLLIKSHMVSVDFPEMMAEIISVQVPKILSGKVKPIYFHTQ
Nature of the assay: Reporter assay of an androgen receptor responsive sequence (luciferase, transiently transfected HEK293 cells). Type of assay: cell-based. As to conditions: 24 hours incubation, relative to activity of 100 nM DHT, read-out: AR transcriptive activity (pEC50) (converted). Put shortly: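 HEK293 cells transiently transfected for 3 h with ARE-firefly luciferase, full-length human AR and TK-Renilla plasmids, then exposed to compound for 24 h at 37 °C in 5% charcoal-treated FBS/DMEM. Dual-Glo luminescence read; pEC50 from 4-parameter fit relative to 100 nM DHT.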
(In general: Reporter assays use an easily measured gene product as a stand-in for the process of interest.)

Regarding `Cc1nc(CN(CCc2ccc(Cl)cc2)c2nc(C(=O)NS(C)(=O)=O)c(C)o2)cs1` [Compound 546, 2-[2-(4-chlorophenyl)ethyl-[(2-methylthiazol-4-yl)methyl]amino]-5-methyl-N-methylsulfonyl-oxazole-4-carboxamide], the EC50 in assay [1] is 200 nM; in assay [2] it was 1580 nM.
The like results for `Cc1oc(N(CCc2ccc(C#N)cc2)Cc2ccc(Cl)cc2)nc1C(=O)NS(C)(=O)=O` [Compound 548, 2-[(4-chlorophenyl)methyl-[2-(4-cyanophenyl)ethyl]amino]-5-methyl-N-methylsulfonyl-oxazole-4-carboxamide] were, in that order, 25.1 nM and 126 nM.
The like results for `Cc1oc(N(CCc2ccc(Cl)cc2)Cc2ccc(Cl)cn2)nc1C(=O)NS(C)(=O)=O` [Compound 549, 2-[2-(4-chlorophenyl)ethyl-[(5-chloro-2-pyridyl)methyl]amino]-5-methyl-N-methylsulfonyl-oxazole-4-carboxamide] were, in that order, 63.1 nM and 1260 nM.
As to `Cc1oc(N(CCc2ccc(Cl)cc2)Cc2ccc(F)cc2)nc1C(=O)NS(C)(=O)=O` [Compound 550, 2-[2-(4-chlorophenyl)ethyl-[(4-fluorophenyl)methyl]amino]-5-methyl-N-methylsulfonyl-oxazole-4-carboxamide], the EC50 in assay [1] is 63.1 nM; in assay [2], 251 nM.
The like results for `Cc1oc(N(CCc2ccc(Cl)cc2)Cc2ccc(C(F)(F)F)nc2)nc1C(=O)NS(C)(=O)=O` [Compound 551, 2-[2-(4-chlorophenyl)ethyl-[[6-(trifluoromethyl)-3-pyridyl]methyl]amino]-5-methyl-N-methylsulfonyl-oxazole-4-carboxamide] were, in that order, 39.8 nM and 501 nM.
Regarding `Cc1oc(N(CCc2ccc(C#N)cc2)Cc2ccc(F)cc2)nc1C(=O)NS(C)(=O)=O` [Compound 552, 2-[2-(4-cyanophenyl)ethyl-[(4-fluorophenyl)methyl]amino]-5-methyl-N-methylsulfonyl-oxazole-4-carboxamide], the EC50 was 79.4 nM in assay [1] and 501 nM in assay [2].
As to `Cc1oc(N(CCc2ccc(C#N)cc2)Cc2ccc(OC(F)F)cc2)nc1C(=O)NS(C)(=O)=O` [Compound 553, 2-[2-(4-cyanophenyl)ethyl-[[4-(difluoromethoxy)phenyl]methyl]amino]-5-methyl-N-methylsulfonyl-oxazole-4-carboxamide], the EC50 in assay [1] is 31.6 nM; in assay [2] it was 316 nM.
The like results for `Cc1oc(N(CCc2ccc(C#N)cc2)Cc2ccc(F)cc2Cl)nc1C(=O)NS(C)(=O)=O` [Compound 554, 2-[(2-chloro-4-fluoro-phenyl)methyl-[2-(4-cyanophenyl)ethyl]amino]-5-methyl-N-methylsulfonyl-oxazole-4-carboxamide] were, in that order, 39.8 nM and 794 nM.
For the compound `Cc1oc(N(CCc2ccc(C#N)cc2)Cc2ccc(C(F)(F)F)nc2)nc1C(=O)NS(C)(=O)=O` [Compound 555, 2-[2-(4-cyanophenyl)ethyl-[[6-(trifluoromethyl)-3-pyridyl]methyl]amino]-5-methyl-N-methylsulfonyl-oxazole-4-carboxamide], the EC50 is 316 nM in assay [1] and 5010 nM in assay [2].
With `COCCCS(=O)(=O)NC(=O)c1nc(N(CCc2ccc(C#N)cc2)Cc2ccc(F)cc2)oc1C` [Compound 556, 2-[2-(4-cyanophenyl)ethyl-[(4-fluorophenyl)methyl]amino]-N-(3-methoxypropylsulfonyl)-5-methyl-oxazole-4-carboxamide], the EC50 in assay [1] is 100 nM; in assay [2], 1260 nM.
Consider `COCCCS(=O)(=O)NC(=O)c1nc(N(CCc2ccc(C#N)cc2)Cc2ccc(OC(F)F)cc2)oc1C` [Compound 557, 2-[2-(4-cyanophenyl)ethyl-[[4-(difluoromethoxy)phenyl]methyl]amino]-N-(3-methoxypropylsulfonyl)-5-methyl-oxazole-4-carboxamide], for which the EC50 was 39.8 nM in assay [1] and 631 nM in assay [2].
The like results for `COCCCS(=O)(=O)NC(=O)c1nc(N(CCc2ccc(C#N)cc2)Cc2ccc(F)cc2Cl)oc1C` [Compound 558, 2-[(2-chloro-4-fluoro-phenyl)methyl-[2-(4-cyanophenyl)ethyl]amino]-N-(3-methoxypropylsulfonyl)-5-methyl-oxazole-4-carboxamide] were, in that order, 63.1 nM and greater than 10000 nM.
Take `COCCCS(=O)(=O)NC(=O)c1nc(N(CCc2ccc(C#N)cc2)Cc2ccc(C(F)(F)F)nc2)oc1C` [Compound 559, 2-[2-(4-cyanophenyl)ethyl-[[6-(trifluoromethyl)-3-pyridyl]methyl]amino]-N-(3-methoxypropylsulfonyl)-5-methyl-oxazole-4-carboxamide]: the EC50 in assay [1] was 316 nM; in assay [2], 7940 nM.
The like results for `Cc1oc(N(CCc2ccc(OC(F)(F)F)cc2)Cc2nc(C3CC3)no2)nc1C(=O)NS(C)(=O)=O` [Compound 560, 2-[(3-cyclopropyl-1,2,4-oxadiazol-5-yl)methyl-[2-[4-(trifluoromethoxy)phenyl]ethyl]amino]-5-methyl-N-methylsulfonyl-oxazole-4-carboxamide] were, in that order, 50.1 nM and 1000 nM.
`Cc1oc(N(CCc2ccc(OC(F)(F)F)cc2)Cc2ccc(Cl)cn2)nc1C(=O)NS(C)(=O)=O` [Compound 561, 2-[(5-chloro-2-pyridyl)methyl-[2-[4-(trifluoromethoxy)phenyl]ethyl]amino]-5-methyl-N-methylsulfonyl-oxazole-4-carboxamide]: the EC50 in assay [1] is 39.8 nM; in assay [2], 3160 nM.
With `Cc1oc(N(CCc2ccc(OC(F)(F)F)cc2)Cc2ccc(C(F)(F)F)nc2)nc1C(=O)NS(C)(=O)=O` [Compound 562, 5-methyl-N-methylsulfonyl-2-[2-[4-(trifluoromethoxy)phenyl]ethyl-[[6-(trifluoromethyl)-3-pyridyl]methyl]amino]oxazole-4-carboxamide], the EC50 in assay [1] is 39.8 nM; in assay [2], 794 nM.
As for `COCCCS(=O)(=O)NC(=O)c1nc(N(CCc2ccc(OC(F)(F)F)cc2)Cc2nc(C3CC3)no2)oc1C` [Compound 563, 2-[(3-cyclopropyl-1,2,4-oxadiazol-5-yl)methyl-[2-[4-(trifluoromethoxy)phenyl]ethyl]amino]-N-(3-methoxypropylsulfonyl)-5-methyl-oxazole-4-carboxamide], the EC50 was 79.4 nM in assay [1] and 1580 nM in assay [2].
For the compound `COCCCS(=O)(=O)NC(=O)c1nc(N(CCc2ccc(OC(F)(F)F)cc2)Cc2ccc(Cl)cn2)oc1C` [Compound 564, 2-[(5-chloro-2-pyridyl)methyl-[2-[4-(trifluoromethoxy)phenyl]ethyl]amino]-N-(3-methoxypropylsulfonyl)-5-methyl-oxazole-4-carboxamide], the figures for the EC50 in assay [1] and in assay [2] were 158 nM and greater than 10000 nM, respectively.
`COCCCS(=O)(=O)NC(=O)c1nc(N(CCc2ccc(OC(F)(F)F)cc2)Cc2ccc(C(F)(F)F)nc2)oc1C` [Compound 565, N-(3-methoxypropylsulfonyl)-5-methyl-2-[2-[4-(trifluoromethoxy)phenyl]ethyl-[[6-(trifluoromethyl)-3-pyridyl]methyl]amino]oxazole-4-carboxamide]: the EC50 in assay [1] is 63.1 nM; in assay [2] it was 2000 nM.
